Laboratory results: ChEMBL document CHEMBL3885881, “DrugMatrix”

Species: Rattus norvegicus
Test: DrugMatrix - Regimen: Daily Repeat
Type: toxicity, organism-based, Sprague-Dawley
Parameters: regimen Daily Repeat, gender Male, age 6-8 weeks
Conditions: in vivo, po, route oral GAVAGE, […]; for ABSOLUTE BASOPHIL / ABSOLUTE EOSINOPHIL / ABSOLUTE LYMPHOCYTE / ABSOLUTE MONOCYTE / ABSOLUTE SEGMENTED NEUTROPHIL / BASOPHIL / EOSINOPHIL / ERYTHROCYTE COUNT / HEMATOCRIT / HEMOGLOBIN / LEUKOCYTE COUNT / LYMPHOCYTE / MEAN CORPUSCULAR HEMOGLOBIN / MEAN CORPUSCULAR HEMOGLOBIN CONCENTRATION / MEAN CORPUSCULAR VOLUME / MONOCYTE / NEUTROPHIL / NUCLEATED RED BLOOD CELLS / PLATELET COUNT: tissue Blood; for ALANINE AMINOTRANSFERASE / ALBUMIN / ALKALINE PHOSPHATASE / ASPARTATE AMINOTRANSFERASE / BLOOD UREA NITROGEN / CARBON DIOXIDE / CHLORIDE / CHOLESTEROL / CREATINE PHOSPHOKINASE / CREATININE / GLUCOSE / LACTATE DEHYDROGENASE / LIPASE / PHOSPHORUS / POTASSIUM / SODIUM / TOTAL BILIRUBIN / TOTAL PROTEIN / URIC ACID: tissue Plasma
[1] = 3 mg/kg, 120 h, dose level Low, time 5 day
[2] = 300 mg/kg, 72 h, dose level High, time 3 day
[3] = 300 mg/kg, 120 h, dose level High, time 5 day

CC#C[C@]1(O)CC[C@H]2[C@@H]3CCC4=CC(=O)CCC4=C3[C@@H](c3ccc(N(C)C)cc3)C[C@@]21C [MIFEPRISTONE]
ABSOLUTE BASOPHIL [1]: 0 CELLS/uL | ABSOLUTE EOSINOPHIL [1]: 0 CELLS/uL | ABSOLUTE LYMPHOCYTE [1]: 7739.67 CELLS/uL | ABSOLUTE MONOCYTE [1]: 116.67 CELLS/uL | ABSOLUTE SEGMENTED NEUTROPHIL [1]: 1310.33 CELLS/uL | BASOPHIL [1]: 0% | EOSINOPHIL [1]: 0% | ERYTHROCYTE COUNT [1]: 4.91 x10E6/uL | HEMATOCRIT [1]: 31.8% | HEMOGLOBIN [1]: 12.53 G/DL | LEUKOCYTE COUNT [1]: 9.17 x10E3/uL | LYMPHOCYTE [1]: 84.33% | MEAN CORPUSCULAR HEMOGLOBIN [1]: 25.53 pg | MEAN CORPUSCULAR HEMOGLOBIN CONCENTRATION [1]: 39.43 G/DL | MEAN CORPUSCULAR VOLUME [1]: 64.83 fL | MONOCYTE [1]: 1.33% | NEUTROPHIL [1]: 14.33% | NUCLEATED RED BLOOD CELLS [1]: 0 /100WBC | PLATELET COUNT [1]: 1194.67 x10E3/uL | ALANINE AMINOTRANSFERASE [1]: 61.67 u/L | ALBUMIN [1]: 4.13 G/DL | ALKALINE PHOSPHATASE [1]: 340.33 u/L | ASPARTATE AMINOTRANSFERASE [1]: 84 u/L | BLOOD UREA NITROGEN [1]: 13.33 mg/dL | CARBON DIOXIDE [1]: 30.33 mmol/L | CHLORIDE [1]: 97.67 MEQ/L | CHOLESTEROL [1]: 64.67 mg/dL | CREATINE PHOSPHOKINASE [1]: 193.33 u/L | CREATININE [1]: 0.14 mg/dL | GLUCOSE [1]: 154.33 mg/dL | LACTATE DEHYDROGENASE [1]: 87 u/L | LIPASE [1]: 9.33 u/L | PHOSPHORUS [1]: 10.8 mg/dL | POTASSIUM [1]: 5.65 MEQ/L | SODIUM [1]: 143.37 MEQ/L | TOTAL BILIRUBIN [1]: 0.13 mg/dL | TOTAL PROTEIN [1]: 5.9 G/DL | URIC ACID [1]: 0.73 mg/dL | ABSOLUTE BASOPHIL [2]: 0 CELLS/uL | ABSOLUTE EOSINOPHIL [2]: 0 CELLS/uL | ABSOLUTE LYMPHOCYTE [2]: 6590.67 CELLS/uL | ABSOLUTE MONOCYTE [2]: 75.33 CELLS/uL | ABSOLUTE SEGMENTED NEUTROPHIL [2]: 634 CELLS/uL | BASOPHIL [2]: 0% | EOSINOPHIL [2]: 0% | ERYTHROCYTE COUNT [2]: 5.5 x10E6/uL | HEMATOCRIT [2]: 33.8% | HEMOGLOBIN [2]: 13.33 G/DL | LEUKOCYTE COUNT [2]: 7.3 x10E3/uL | LYMPHOCYTE [2]: 90.67% | MEAN CORPUSCULAR HEMOGLOBIN [2]: 24.3 pg | MEAN CORPUSCULAR HEMOGLOBIN CONCENTRATION [2]: 39.47 G/DL | MEAN CORPUSCULAR VOLUME [2]: 61.57 fL | MONOCYTE [2]: 1% | NEUTROPHIL [2]: 8.33% | NUCLEATED RED BLOOD CELLS [2]: 0 /100WBC | PLATELET COUNT [2]: 1129.67 x10E3/uL | ALANINE AMINOTRANSFERASE [2]: 63 u/L | ALBUMIN [2]: 3.77 G/DL | ALKALINE PHOSPHATASE [2]: 417.67 u/L | ASPARTATE AMINOTRANSFERASE [2]: 107.67 u/L | BLOOD UREA NITROGEN [2]: 14.33 mg/dL | CARBON DIOXIDE [2]: 28 mmol/L | CHLORIDE [2]: 102.67 MEQ/L | CHOLESTEROL [2]: 54.33 mg/dL | CREATINE PHOSPHOKINASE [2]: 371.67 u/L | CREATININE [2]: 0.32 mg/dL | GLUCOSE [2]: 160.67 mg/dL | LACTATE DEHYDROGENASE [2]: 97.67 u/L | LIPASE [2]: 11 u/L | PHOSPHORUS [2]: 9.53 mg/dL | POTASSIUM [2]: 4.8 MEQ/L | SODIUM [2]: 144.33 MEQ/L | TOTAL BILIRUBIN [2]: 0.17 mg/dL | TOTAL PROTEIN [2]: 5.53 G/DL | URIC ACID [2]: 0.37 mg/dL | ABSOLUTE BASOPHIL [3]: 0 CELLS/uL | ABSOLUTE EOSINOPHIL [3]: 48.67 CELLS/uL | ABSOLUTE LYMPHOCYTE [3]: 8343 CELLS/uL | ABSOLUTE MONOCYTE [3]: 151.67 CELLS/uL | ABSOLUTE SEGMENTED NEUTROPHIL [3]: 790 CELLS/uL | BASOPHIL [3]: 0% | EOSINOPHIL [3]: 0.67% | ERYTHROCYTE COUNT [3]: 5.36 x10E6/uL | HEMATOCRIT [3]: 32.73% | HEMOGLOBIN [3]: 12.93 G/DL | LEUKOCYTE COUNT [3]: 9.33 x10E3/uL | LYMPHOCYTE [3]: 89% | MEAN CORPUSCULAR HEMOGLOBIN [3]: 24.17 pg | MEAN CORPUSCULAR HEMOGLOBIN CONCENTRATION [3]: 39.53 G/DL | MEAN CORPUSCULAR VOLUME [3]: 61.13 fL | MONOCYTE [3]: 1.67% | NEUTROPHIL [3]: 8.67% | NUCLEATED RED BLOOD CELLS [3]: 0 /100WBC | PLATELET COUNT [3]: 1290.33 x10E3/uL | ALANINE AMINOTRANSFERASE [3]: 84.33 u/L | ALBUMIN [3]: 3.8 G/DL | ALKALINE PHOSPHATASE [3]: 386 u/L | ASPARTATE AMINOTRANSFERASE [3]: 91 u/L | BLOOD UREA NITROGEN [3]: 15.33 mg/dL | CARBON DIOXIDE [3]: 30.33 mmol/L | CHLORIDE [3]: 97.67 MEQ/L | CHOLESTEROL [3]: 86 mg/dL | CREATINE PHOSPHOKINASE [3]: 250 u/L | CREATININE [3]: 0.3 mg/dL | GLUCOSE [3]: 148.33 mg/dL | LACTATE DEHYDROGENASE [3]: 74.67 u/L | LIPASE [3]: 25.67 u/L | PHOSPHORUS [3]: 8.03 mg/dL | POTASSIUM [3]: 5.82 MEQ/L | SODIUM [3]: 142.7 MEQ/L | TOTAL BILIRUBIN [3]: 0.1 mg/dL | TOTAL PROTEIN [3]: 6 G/DL | URIC ACID [3]: 0.3 mg/dL
